Laboratory results: PubChem BioAssay (NCI)
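Cultured in 96-well plates, cells were exposed to test compound for 48 hours across five concentrations. GI50: concentration for 50% inhibition of growth. TGI is the concentration that stops growth completely.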

What was measured:
Experiment in all cases: NCI tumour cell line growth inhibition, 48 h
NCI-H522 lung = tested on: NCI-H522 lung
SF-539 CNS = tested on: SF-539 CNS
HOP-62 NSCLC = tested on: HOP-62 NSCLC
SNB-75 CNS = tested on: SNB-75 CNS
CAKI-1 renal = tested on: CAKI-1 renal
NCI-H226 lung = tested on: NCI-H226 lung
TK-10 renal = tested on: TK-10 renal
COLO 205 colon = tested on: COLO 205 colon
HCT-116 colon = tested on: HCT-116 colon
CCRF-CEM leukemia = tested on: CCRF-CEM leukemia

SMILES | TGI (NCI-H522 lung) | TGI (SF-539 CNS) | TGI (HOP-62 NSCLC) | TGI (SNB-75 CNS) | TGI (CAKI-1 renal) | TGI (NCI-H226 lung) | TGI (TK-10 renal) | TGI (COLO 205 colon) | TGI (HCT-116 colon) | GI50 (CCRF-CEM leukemia) | TGI (CCRF-CEM leukemia) | GI50 (HOP-62 NSCLC) | GI50 (SNB-75 CNS) | GI50 (CAKI-1 renal) | GI50 (NCI-H226 lung) | GI50 (TK-10 renal) | GI50 (COLO 205 colon) | GI50 (HCT-116 colon) | GI50 (NCI-H522 lung) | GI50 (SF-539 CNS)
CC(=O)C1C(=O)C(=O)N(CCN2C(=O)C(=O)C(C(C)=O)C2=O)C1=O (stereo unspecified) | > 100 µM | > 100 µM | > 100 µM | > 100 µM | > 100 µM | > 100 µM | > 100 µM | > 100 µM | > 100 µM |  |  |  |  |  |  |  |  |  |  | 
CCN(CC)C(=S)SS(C)(=O)=O | 0.137 µM | 43.7 µM | 40.2 µM | > 100 µM | 57.1 µM | 31.3 µM | 32.2 µM | 29.7 µM | 43.1 µM |  |  |  |  |  |  |  |  |  |  | 
CCOCCOCCOCCOCCOCCOCCOCCOCCOCCO (tested in a mixture with another compound) |  |  | 4.45 µM | 5.34 µM | 18.9 µM | 12.5 µM | 12.2 µM | 4.23 µM | 4.68 µM | 1.06 µM | > 32.5 µM | 1.07 µM | 0.728 µM | 1.42 µM | 1.22 µM | 1.53 µM | 1.28 µM | 1.01 µM |  | 
CC(=O)OCC1OC(n2c(=S)n(-c3ccccc3)c(=O)c3cc(Br)ccc32)C(OC(C)=O)C1OC(C)=O (stereo unspecified) | > 100 µM | > 100 µM | > 100 µM | > 100 µM | > 100 µM | > 100 µM |  | > 100 µM | > 100 µM |  |  |  |  |  |  |  |  |  |  | 
CSc1ccc(C(=O)/C=C/c2ccc(Cl)cc2Cl)cc1 | 37.2 µM | 46.9 µM | 37.5 µM |  | 92 µM | 82.9 µM | 52.9 µM |  | 14.9 µM |  |  | 19.6 µM |  | 33.4 µM | 26 µM | 20.9 µM |  | 3.91 µM | 14.4 µM | 22 µM
Cc1cc(Br)ccc1N=Nc1c(C)nn(-c2ccccc2)c1-c1ccccc1 | > 100 µM | > 100 µM | > 100 µM | > 100 µM | > 100 µM |  | > 100 µM | > 100 µM | > 100 µM |  | > 100 µM |  |  |  |  |  |  |  |  | 
Cc1ccc(S(=O)(=O)NNS(C)(=O)=O)cc1 | > 100 µM | > 100 µM | > 100 µM | > 100 µM | > 100 µM |  | > 100 µM | > 100 µM | > 100 µM |  | > 100 µM |  |  |  |  |  |  |  |  | 
O=C1C(Cl)=C(NCCCN(CCCNC2=C(Cl)C(=O)c3ccccc3C2=O)C2=C(Cl)C(=O)c3ccccc3C2=O)C(=O)c2ccccc21 | 4.98 µM | 6.71 µM | 42.3 µM | 39.3 µM |  | 35.1 µM | 36.9 µM |  |  | 3.34 µM | > 100 µM | 3.8 µM | 20.6 µM |  | 17.3 µM | 17.9 µM |  |  | 1.97 µM | 2.45 µM
CCOC(=O)/C=C1/SC(=Nc2ccc(C#N)cc2)N(Cc2ccco2)C1=O | 4.12 µM | 12.4 µM | 9.21 µM | 55.4 µM |  | 4.76 µM | 8.19 µM |  | 4.97 µM | 3.17 µM | > 100 µM | 2.94 µM | 10.3 µM |  | 2.22 µM | 2.54 µM |  | 2.06 µM | 1.83 µM | 3.09 µM
N#Cc1ccc(C2SCc3nc4ccccc4n32)cc1 (stereo unspecified) | 75.8 µM | > 100 µM | > 100 µM | > 100 µM | > 100 µM |  | > 100 µM | > 100 µM | > 100 µM |  | > 100 µM |  |  |  |  |  |  |  |  | 
O=C(N/C(=C\c1ccc(/C=C(\NC(=O)c2ccccc2)c2nc3c(O)nc(S)nc3[nH]2)cc1)c1nc2c(O)nc(S)nc2[nH]1)c1ccccc1 | 41.1 µM | > 100 µM | > 100 µM | 84.7 µM | > 100 µM |  | > 100 µM | > 100 µM | > 100 µM |  | > 100 µM |  |  |  |  |  |  |  |  | 
O=C(C(=CN1CCN(C(=O)c2ccco2)C1=S)C(=O)c1ccccc1)c1ccccc1 |  |  | 44.2 µM | > 50 µM | 17.2 µM |  | 22.1 µM | > 50 µM | 17 µM |  |  | 15.9 µM | 27.4 µM | 6.98 µM |  | 6.87 µM | 20 µM | 7.93 µM |  | 
CCC(c1ccccc1)c1cc(C(C)(C)C)cc(C(C)(C)C)c1O (stereo unspecified) | 27.2 µM | 34.2 µM | 29.7 µM | 27.2 µM | 29.8 µM | 35.1 µM | 28.8 µM | 34.2 µM | 25.5 µM |  |  |  |  |  |  |  |  |  |  | 
NC(=O)c1ncn(C2OC(CO)C(O)C2O)c1O (stereo unspecified) |  | > 100 µM | > 100 µM | > 100 µM | > 100 µM | > 100 µM | > 100 µM |  | > 100 µM |  | > 100 µM |  |  |  |  |  |  |  |  | 
Clc1ccc(-c2nc(NCc3ccco3)c3ccccc3n2)c(Cl)c1 | > 100 µM |  | 34.7 µM |  | 31 µM | > 100 µM | 7.1 µM | > 100 µM | 45.8 µM | 10.5 µM | > 100 µM | 15.8 µM |  | 8.82 µM | 20.7 µM | 2.38 µM | 21.4 µM | 16.3 µM | 33.7 µM | 
O=C(Oc1c(Cl)cc(Cl)cc1Cl)c1ccccc1Nc1ccnc(C(F)(F)F)c1 | > 100 µM |  | 8.8 µM |  | > 100 µM | 24.6 µM | 28.4 µM | > 100 µM | 4.28 µM |  |  | 2.66 µM |  | 7.12 µM | 5.93 µM | 3.41 µM | 6.24 µM | 1.72 µM | 5.7 µM | 
COc1ccc2nc3ccccc3c(NCCCCN(CCCl)CCCl)c2c1 |  | 1.26 µM | 24.8 µM | 2.04 µM |  | 9.65 µM |  |  | 1.32 µM |  |  |  |  |  |  |  |  |  |  | 
Cc1cc(N(CCNc2ccnc3cc(Cl)ccc23)Cc2ccc3c(c2)OCO3)nc(N2CCCC2)n1 | 3.79 µM | 3.09 µM | 10.2 µM | 3 µM |  | 6.86 µM | 3.8 µM | 3.17 µM | 2.14 µM | 1.57 µM | 9.09 µM | 1.86 µM | 1.34 µM |  | 2.46 µM | 1.74 µM | 1.53 µM | 0.532 µM | 1.74 µM | 1.6 µM
Cc1c(-c2ccccn2)ccc2ccccc12 |  | > 100 µM | > 100 µM | > 100 µM | > 100 µM | > 100 µM | > 100 µM | > 100 µM | > 100 µM |  | > 100 µM |  |  |  |  |  |  |  |  | 
Cc1ccc(Nc2nc(-c3ccc(-c4ccc([N+](=O)[O-])cc4)o3)cs2)cc1 |  | > 100 µM | > 100 µM | > 100 µM | > 100 µM | > 100 µM | > 100 µM | > 100 µM | > 100 µM |  |  |  |  |  |  |  |  |  |  | 
